Measured values reported in patent publication US9346810B2, “Pyrrolopyrimidine compounds and uses thereof” (HUTCHISON MEDIPHARMA LIMITED, priority 2010, dated 2016).
Where two headings read alike, the source gives them in different places.

Legend:
[1] = biological target: Recombinant human JAK2 catalytic domain (Homo sapiens (Human), UniProt O60674); assay: JAK2 kinase assay (Z'-LYTE, Tyr 6 Peptide); assay type: biochemical
Description: (§1) JAK1/2/3 kinase assay are performed in vitro using Kit-Tyr 6 Peptide (Invitrogen, Cat. No. PV4122). TYK2 kinase assay are performed in vitro using Z′-LYTE™ Kinase Assay Kit-Tyr 3 Peptide (Invitrogen, Cat. No. PV3192). […] All compounds are initially tested at 8 different concentrations (1 μM down to 0.0003 μM) using a 1:3 serial dilution scheme.

[2] = biological target: Recombinant human JAK3 catalytic domain (Homo sapiens (Human), UniProt P52333); assay: JAK3 kinase assay (Z'-LYTE, Tyr 6 Peptide); assay type: biochemical
Description: as §1

[3] = read-out: IC50 in JAK2 kinase assay
[4] = read-out: IC50 in JAK3 kinase assay

Chain of Recombinant human JAK2 catalytic domain (O60674 849-1124): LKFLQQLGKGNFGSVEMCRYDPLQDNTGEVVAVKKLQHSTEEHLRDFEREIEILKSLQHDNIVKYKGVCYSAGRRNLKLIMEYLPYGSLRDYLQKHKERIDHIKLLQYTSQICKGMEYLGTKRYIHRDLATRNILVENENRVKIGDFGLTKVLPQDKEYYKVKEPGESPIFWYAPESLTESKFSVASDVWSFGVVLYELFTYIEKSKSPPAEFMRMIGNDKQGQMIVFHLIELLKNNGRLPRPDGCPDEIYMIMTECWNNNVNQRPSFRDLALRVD
Chain of Recombinant human JAK3 catalytic domain (P52333 822-1111): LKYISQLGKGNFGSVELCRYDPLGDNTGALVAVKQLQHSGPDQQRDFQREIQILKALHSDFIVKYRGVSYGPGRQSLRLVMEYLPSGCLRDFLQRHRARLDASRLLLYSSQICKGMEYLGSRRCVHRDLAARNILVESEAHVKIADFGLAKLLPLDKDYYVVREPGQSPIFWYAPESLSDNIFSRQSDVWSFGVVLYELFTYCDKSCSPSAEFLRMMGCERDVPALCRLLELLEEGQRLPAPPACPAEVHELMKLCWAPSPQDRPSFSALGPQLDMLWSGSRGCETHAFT

SMILES	IC50 [1, 3]	IC50 [2, 4]	other results
CN(c1ccc2[nH]c(=O)[nH]c2n1)[C@@H]1CCN(c2ncnc3[nH]ccc23)C1 [Compound 164, (R)-5-((1-(7H-pyrrolo[2,3-d]pyrimidin-4-yl)pyrrolidin-3-yl)(methyl)amino)-1H-Imidazo[4,5-b]pyridin-2(3H)-one]	1 to 100 nM	100 to 1000 nM	–
C[C@H](NC(=O)c1ccc(N(C)[C@@H]2CCN(c3ncnc4[nH]ccc34)C2)c(F)c1)c1ccccc1 [Compound 182]	1 to 100 nM	1 to 100 nM	–
CN(c1ccc(C(=O)NC(CO)c2ccc(Cl)cc2)cc1F)[C@@H]1CCN(c2ncnc3[nH]ccc23)C1 (stereo partly shown) [Compound 201]	1 to 100 nM	–	–
CN(c1ccc(C#N)c(F)c1)[C@@H]1CCN(c2ncnc3[nH]ccc23)C1 [Compound 105]	–	–	IC50 ([1]; read-out: JAK2 (enzyme, IC50)): 48.7 nM; IC50 ([2]; read-out: JAK3 (enzyme, IC50)): 359 nM
CN(c1ccc([N+](=O)[O-])cn1)[C@@H]1CCN(c2ncnc3[nH]ccc23)C1 [Compound 70]	100 to 1000 nM	100 to 1000 nM	–
CN(c1ccc(-c2nn[nH]n2)cn1)[C@@H]1CCN(c2ncnc3[nH]ccc23)C1 [Compound 160, (R)—N-(1-(7H-pyrrolo[2,3-d]pyrimidin-4-yl)pyrrolidin-3-yl)-N-methyl-5-(2H-tetrazol-5-yl)pyridin-2-amine]	100 to 1000 nM	–	–
CN(c1ccc(C(=O)N[C@@H](CO)c2ccccc2)cn1)[C@@H]1CCN(c2ncnc3[nH]ccc23)C1 [Compound 176]	1 to 100 nM	–	–
CN(c1ccc(F)cn1)[C@@H]1CCN(c2ncnc3[nH]ccc23)C1 [Compound 66]	1 to 100 nM	1 to 100 nM	–
CN(c1nc(Cl)nc2ccccc12)[C@@H]1CCN(c2ncnc3[nH]ccc23)C1 [Compound 79]	100 to 1000 nM	100 to 1000 nM	–
CN(c1c(F)cc(C(=O)N[C@@H](CO)c2ccccc2)cc1F)[C@@H]1CCN(c2ncnc3[nH]ccc23)C1 [Compound 208]	1 to 100 nM	1 to 100 nM	–
CNS(=O)(=O)N(C)[C@@H]1CCN(c2ncnc3[nH]ccc23)C1 [Compound 47]	1 to 100 nM	–	IC50 ([1]; read-out: JAK2 (enzyme, IC50)): 98 nM; IC50 ([2]; read-out: JAK3 (enzyme, IC50)): 157 nM
COC[C@H](NC(=O)c1ccc(N(C)[C@@H]2CCN(c3ncnc4[nH]ccc34)C2)nc1)c1ccccc1 [Compound 209]	1 to 100 nM	1 to 100 nM	–
CN(c1ccc(C(=O)N[C@H](CO)c2ccccc2)cn1)[C@@H]1CCN(c2ncnc3[nH]ccc23)C1 [Compound 174]	1 to 100 nM	100 to 1000 nM	–
CN(c1ncc(Br)cc1C#N)[C@@H]1CCN(c2ncnc3[nH]ccc23)C1 [Compound 89]	100 to 1000 nM	–	–
CN(c1ccc(C#N)cn1)[C@@H]1CCN(c2ncnc3[nH]ccc23)C1 [Compound 71]	1 to 100 nM	100 to 1000 nM	–
CN(c1ccc(NS(=O)(=O)c2ccc(F)cc2)cn1)[C@@H]1CCN(c2ncnc3[nH]ccc23)C1 [Compound 212]	1 to 100 nM	–	–
CCS(=O)(=O)N(C)[C@@H]1CCN(c2ncnc3[nH]ccc23)C1 [Compound 48]	1 to 100 nM	100 to 1000 nM	–
CN(c1ccc(C(=O)NC2CC2)cn1)[C@@H]1CCN(c2ncnc3[nH]ccc23)C1 [Compound 171, (R)-6-((1-(7H-pyrrolo[2,3-d]pyrimidin-4-yl)pyrrolidin-3-yl)(methyl)amino)-N-cyclopropylnicotinamide]	1 to 100 nM	100 to 1000 nM	–
CCS(=O)(=O)Nc1ccc(N(C)[C@@H]2CCN(c3ncnc4[nH]ccc34)C2)nc1 [Compound 210, (R)—N-(6-((1-(7H-pyrrolo[2,3-d]pyrimidin-4-yl)pyrrolidin-3-yl)(methyl)amino)pyridin-3-yl)ethanesulfonamide]	–	–	IC50 [1]: 1 to 100 nM; IC50 [2]: 100 to 1000 nM

SMILES	IC50 [1, 3]	IC50 [2, 4]	other results
CN(c1ccc(Cl)nn1)[C@@H]1CCN(c2ncnc3[nH]ccc23)C1 [Compound 85]	100 to 1000 nM	–	–
CN(c1ccc(C#N)cc1Br)[C@@H]1CCN(c2ncnc3[nH]ccc23)C1 [Compound 115]	100 to 1000 nM	–	–
CN(c1ncnc2ccccc12)[C@@H]1CCN(c2ncnc3[nH]ccc23)C1 [Compound 80]	1 to 100 nM	100 to 1000 nM	–
N#CCN(C1CC1)[C@@H]1CCN(c2ncnc3[nH]ccc23)C1 [Compound 55]	100 to 1000 nM	–	–
CN(c1ccc(C#N)cn1)[C@@H]1CCN(c2ccnc3[nH]ccc23)C1 [Compound 92]	1 to 100 nM	100 to 1000 nM	–
CC(C)S(=O)(=O)N(C)[C@@H]1CCN(c2ncnc3[nH]ccc23)C1 [Compound 49]	100 to 1000 nM	–	–
CN(c1nc(Cl)c(C#N)cc1F)[C@@H]1CCN(c2ncnc3[nH]ccc23)C1 [Compound 87]	1 to 100 nM	100 to 1000 nM	–
CN(C(=O)c1ccc(N(C)[C@@H]2CCN(c3ncnc4[nH]ccc34)C2)nc1)c1ccc(F)cc1 [Compound 178]	100 to 1000 nM	–	–
CN(c1ncc(Br)cn1)[C@@H]1CCN(c2ncnc3[nH]ccc23)C1 [Compound 94]	1 to 100 nM	100 to 1000 nM	–
CN(c1ccc(C(=O)NCCO)cn1)[C@@H]1CCN(c2ncnc3[nH]ccc23)C1 [Compound 190]	1 to 100 nM	100 to 1000 nM	–
C#CCN(c1ccc(C#N)cc1F)[C@@H]1CCN(c2ncnc3[nH]ccc23)C1 [Compound 130]	100 to 1000 nM	–	–
CN(c1ccc(C(=O)Nc2ccccc2F)cn1)[C@@H]1CCN(c2ncnc3[nH]ccc23)C1 [Compound 192]	1 to 100 nM	–	–
N#CCN(C1CCC1)[C@@H]1CCN(c2ncnc3[nH]ccc23)C1 [Compound 52]	100 to 1000 nM	–	–
CN(C(=O)C1(C#N)CC1)[C@@H]1CCN(c2ncnc3[nH]ccc23)C1 [Compound 6]	100 to 1000 nM	–	–
CN(c1ncc(C#N)cc1Cl)[C@@H]1CCN(c2ncnc3[nH]ccc23)C1 [Compound 83]	100 to 1000 nM	–	–
CN(c1ncc(C#N)cc1F)[C@@H]1CCN(c2ncnc3[nH]ccc23)C1 [Compound 158]	100 to 1000 nM	–	–
CN(c1ccc(C(=O)N[C@@H](CO)c2ccccc2)cc1F)[C@@H]1CCN(c2ncnc3[nH]ccc23)C1 [Compound 179]	1 to 100 nM	–	–
CN(c1ccc(C(=O)O)cn1)[C@@H]1CCN(c2ncnc3[nH]ccc23)C1 [Compound 170, (R)-6-((1-(7H-pyrrolo[2,3-d]pyrimidin-4-yl)pyrrolidin-3-yl)(methyl)amino)nicotinic acid]	100 to 1000 nM	–	–
CN(c1ccc(-c2cccs2)cn1)[C@@H]1CCN(c2ncnc3[nH]ccc23)C1 [Compound 147]	100 to 1000 nM	–	–

SMILES	IC50 [1, 3]	IC50 [2, 4]	other results
CN(c1ccc(C#N)c(Cl)n1)[C@@H]1CCN(c2ncnc3[nH]ccc23)C1 [Compound 90]	100 to 1000 nM	–	–
N#Cc1ccc2c(c1)CCN2C1CCN(c2ncnc3[nH]ccc23)C1 (stereo not shown) [Compound 46]	1 to 100 nM	–	–
C#CCN(c1ccc(S(C)(=O)=O)cn1)[C@@H]1CCN(c2ncnc3[nH]ccc23)C1 [Compound 58]	100 to 1000 nM	–	–
CN(c1cnc(C#N)cn1)[C@@H]1CCN(c2ncnc3[nH]ccc23)C1 [Compound 84]	–	100 to 1000 nM	–
CN(c1c(F)cc(C#N)cc1F)[C@@H]1CCN(c2ncnc3[nH]ccc23)C1 [Compound 108]	100 to 1000 nM	–	–
Cc1cc(N(C)[C@@H]2CCN(c3ncnc4[nH]ccc34)C2)nc(Cl)c1C#N [Compound 72]	100 to 1000 nM	–	–
CN([C@@H]1CCN(c2ncnc3[nH]ccc23)C1)S(=O)(=O)c1cccc(C#N)c1 [Compound 10]	100 to 1000 nM	–	–
CN(c1ccc(C(=O)NC(CO)c2ccccc2Cl)cc1F)[C@@H]1CCN(c2ncnc3[nH]ccc23)C1 (stereo partly shown) [Compound 207]	100 to 1000 nM	–	–
CN(C1CCCC1)[C@@H]1CCN(c2ncnc3[nH]ccc23)C1 [Compound 53]	100 to 1000 nM	–	–
CN(c1ccc(C(=O)Nc2cccc(Cl)c2)cc1F)[C@@H]1CCN(c2ncnc3[nH]ccc23)C1 [Compound 185]	1 to 100 nM	–	–
CN(C(=O)CC(F)(F)F)[C@@H]1CCN(c2ncnc3[nH]ccc23)C1 [Compound 25]	–	100 to 1000 nM	–
CCOc1cnc(N(C)[C@@H]2CCN(c3ncnc4[nH]ccc34)C2)cn1 [Compound 136]	100 to 1000 nM	–	–
CCCC(=O)N(C)[C@@H]1CCN(c2ncnc3[nH]ccc23)C1 [Compound 3]	100 to 1000 nM	–	–
Cc1cc(N(C)[C@@H]2CCN(c3ncnc4[nH]ccc34)C2)ncc1C#N [Compound 157]	1 to 100 nM	–	–
C#CCN(C1CCOC1)[C@@H]1CCN(c2ncnc3[nH]ccc23)C1 (stereo partly shown) [Compound 56]	100 to 1000 nM	–	–
CN([C@@H]1CCN(c2ncnc3[nH]ccc23)C1)S(=O)(=O)c1cccc([N+](=O)[O-])c1 [Compound 12]	100 to 1000 nM	–	–
CN(c1ccc2nn[nH]c2n1)[C@@H]1CCN(c2ncnc3[nH]ccc23)C1 [Compound 167, (R)—N-(1-(7H-pyrrolo[2,3-d]pyrimidin-4-yl)pyrrolidin-3-yl)-N-methyl-3H-[1,2,3]triazolo[4,5-b]pyridin-5-amine]	100 to 1000 nM	–	–
CN(c1ccc(S(N)(=O)=O)cn1)[C@@H]1CCN(c2ncnc3[nH]ccc23)C1 [Compound 234]	–	–	IC50 ([2]; read-out: JAK3 (enzyme, IC50)): 86.3 nM
